ChEMBL document CHEMBL3045679, “Microwave-assisted synthesis and pharmacological studies of novel 5-deazaalloxazine derivatives” (2012)
≈ marks a conversion by molar mass, not a printed value. Calls of active or inactive are those of the source. The calls are words filed in the database; no cut-off is given here.

Key:
Lipomyces lipofer [1] = assay: Antifungal activity against Lipomyces lipofer NCIM 3252 at 1000 ug/disk after 72 hr by disk diffusion method; format: functional; conditions: NCIM 3252, 72 h, read-out: DIZ
Lipomyces lipofer [2] = assay: Antifungal activity against Lipomyces lipofer NCIM 3252 at 500 ug/disk after 72 hr by disk diffusion method; format: functional; conditions: NCIM 3252, 72 h, read-out: DIZ
Candida albicans [3] = assay: Antifungal activity against Candida albicans NCIM 3471 at 1000 ug/disk after 72 hr by disk diffusion method; format: functional
Candida albicans [4] = assay: Antifungal activity against Candida albicans NCIM 3471 at 500 ug/disk after 72 hr by disk diffusion method; format: functional
Rhodotorula mucilaginosa [5] = assay: Antifungal activity against Rhodotorula mucilaginosa NCIM 3174 at 1000 ug/disk after 72 hr by disk diffusion method; format: functional; conditions: NCIM 3174, 72 h, read-out: DIZ
Rhodotorula mucilaginosa [6] = assay: Antifungal activity against Rhodotorula mucilaginosa NCIM 3174 at 500 ug/disk after 72 hr by disk diffusion method; format: functional
Aspergillus flavus [7] = assay: Antifungal activity against Aspergillus flavus NCIM 535 at 1000 ug/disk after 72 hr by disk diffusion method; format: functional
Aspergillus flavus [8] = assay: Antifungal activity against Aspergillus flavus NCIM 535 at 500 ug/disk after 72 hr by disk diffusion method; format: functional
Aspergillus niger [9] = assay: Antifungal activity against Aspergillus niger NCIM 1196 at 1000 ug/disk after 72 hr by disk diffusion method; format: functional; conditions: NCIM 1196, 72 h, read-out: DIZ
Aspergillus niger [10] = assay: Antifungal activity against Aspergillus niger NCIM 1196 at 500 ug/disk after 72 hr by disk diffusion method; format: functional; conditions: NCIM 1196, 72 h, read-out: DIZ
Penicillium chrysogenum [11] = assay: Antifungal activity against Penicillium chrysogenum NCIM 707 at 1000 ug/disk after 72 hr by disk diffusion method; format: functional; conditions: NCIM 707, 72 h, read-out: DIZ
Penicillium chrysogenum [12] = assay: Antifungal activity against Penicillium chrysogenum NCIM 707 at 500 ug/disk after 72 hr by disk diffusion method; format: functional
Streptomyces albus [13] = assay: Antibacterial activity against Streptomyces albus NCIM 2178 at 1000 ug/disk after 24 hr by disk diffusion method; format: functional
Streptomyces albus [14] = assay: Antibacterial activity against Streptomyces albus NCIM 2178 at 500 ug/disk after 24 hr by disk diffusion method; format: functional, organism-based
Bacillus cereus [15] = assay: Antibacterial activity against Bacillus cereus NCIM 2155 at 1000 ug/disk after 24 hr by disk diffusion method; format: functional; conditions: NCIM 2155, 24 h, read-out: DIZ
Bacillus cereus [16] = assay: Antibacterial activity against Bacillus cereus NCIM 2155 at 500 ug/disk after 24 hr by disk diffusion method; format: functional
Bacillus subtilis [17] = assay: Antibacterial activity against Bacillus subtilis NCIM 2063 at 1000 ug/disk after 24 hr by disk diffusion method; format: functional; conditions: NCIM 2063, 24 h, read-out: DIZ
Bacillus subtilis [18] = assay: Antibacterial activity against Bacillus subtilis NCIM 2063 at 500 ug/disk after 24 hr by disk diffusion method; format: functional
Klebsiella aerogenes [19] = assay: Antibacterial activity against Enterobacter aerogenes NCIM 2239 at 1000 ug/disk after 24 hr by disk diffusion method; format: functional; conditions: NCIM 2239, 24 h, read-out: DIZ
Klebsiella aerogenes [20] = assay: Antibacterial activity against Enterobacter aerogenes NCIM 2239 at 500 ug/disk after 24 hr by disk diffusion method; format: functional
Pseudomonas aeruginosa [21] = assay: Antibacterial activity against Pseudomonas aeruginosa NCIM 2200 at 1000 ug/disk after 24 hr by disk diffusion method; format: functional; conditions: NCIM 2200, 24 h, read-out: DIZ
Pseudomonas aeruginosa [22] = assay: Antibacterial activity against Pseudomonas aeruginosa NCIM 2200 at 500 ug/disk after 24 hr by disk diffusion method; format: functional; conditions: NCIM 2200, 24 h, read-out: DIZ
Escherichia coli [23] = assay: Antibacterial activity against Escherichia coli NCIM 2065 at 1000 ug/disk after 24 hr by disk diffusion method; format: functional; conditions: NCIM 2065, 24 h, read-out: DIZ
Escherichia coli [24] = assay: Antibacterial activity against Escherichia coli NCIM 2065 at 500 ug/disk after 24 hr by disk diffusion method; format: functional; conditions: NCIM 2065, 24 h, read-out: DIZ
Bacillus subtilis [25] = assay: Antibacterial activity against Bacillus subtilis NCIM 2063 after 24 hr by broth dilution assay; format: functional; conditions: NCIM 2063, 24 h
Klebsiella aerogenes [26] = assay: Antibacterial activity against Enterobacter aerogenes NCIM 2239 after 24 hr by broth dilution assay; format: functional; conditions: NCIM 2239, 24 h
Pseudomonas aeruginosa [27] = assay: Antibacterial activity against Pseudomonas aeruginosa NCIM 2200 after 24 hr by broth dilution assay; format: functional; conditions: NCIM 2200, 24 h
Escherichia coli [28] = assay: Antibacterial activity against Escherichia coli NCIM 2065 after 24 hr by broth dilution assay; format: functional; conditions: NCIM 2065, 24 h
Lipomyces lipofer [29] = assay: Antifungal activity against Lipomyces lipofer NCIM 3252 after 72 hr by broth dilution assay; format: functional; conditions: NCIM 3252, 72 h
Aspergillus flavus [30] = assay: Antifungal activity against Aspergillus flavus NCIM 535 after 72 hr by broth dilution assay; format: functional; conditions: NCIM 535, 72 h
Aspergillus niger [31] = assay: Antifungal activity against Aspergillus niger NCIM 1196 after 72 hr by broth dilution assay; format: functional; conditions: NCIM 1196, 72 h
Bacillus cereus [32] = assay: Antibacterial activity against Bacillus cereus NCIM 2155 after 24 hr by broth dilution assay; format: functional; conditions: NCIM 2155, 24 h
Penicillium chrysogenum [33] = assay: Antifungal activity against Penicillium chrysogenum NCIM 707 after 72 hr by broth dilution assay; format: functional; conditions: NCIM 707, 72 h

Row | Structure (SMILES) | zone of inhibition at 1000 µg/disc (Lipomyces lipofer [1]) | zone of inhibition at 500 µg/disc (Lipomyces lipofer [2]) | diameter of the inhibition zone (DIZ) (Candida albicans [3]) | diameter of the inhibition zone (DIZ) (Candida albicans [4]) | zone of inhibition at 1000 µg/disc (Rhodotorula mucilaginosa [5]) | diameter of the inhibition zone (DIZ) (Rhodotorula mucilaginosa [6]) | diameter of the inhibition zone (DIZ) (Aspergillus flavus [8]) | zone of inhibition at 1000 µg/disc (Aspergillus niger [9]) | zone of inhibition at 500 µg/disc (Aspergillus niger [10]) | zone of inhibition at 1000 µg/disc (Penicillium chrysogenum [11]) | diameter of the inhibition zone (DIZ) (Penicillium chrysogenum [12]) | diameter of the inhibition zone (DIZ) (Streptomyces albus [13]) | diameter of the inhibition zone (DIZ) (Streptomyces albus [14]) | zone of inhibition at 1000 µg/disc (Bacillus cereus [15]) | zone of inhibition at 1000 µg/disc (Bacillus subtilis [17]) | zone of inhibition at 1000 µg/disc (Klebsiella aerogenes [19]) | diameter of the inhibition zone (DIZ) (Klebsiella aerogenes [20]) | zone of inhibition at 1000 µg/disc (Pseudomonas aeruginosa [21]) | zone of inhibition at 500 µg/disc (Pseudomonas aeruginosa [22]) | zone of inhibition at 1000 µg/disc (Escherichia coli [23]) | also measured
1 | COc1cccc2cc3c(=O)[nH]c(=S)[nH]c3nc12 | 14 mm | 11 mm | inactive | inactive | 9 mm | inactive | inactive | 10 mm | 8 mm | 12 mm | inactive | inactive | inactive | 12 mm | 13 mm | 12 mm | inactive | 13 mm | 10 mm | 11 mm | zone of inhibition at 1000 µg/disc (Aspergillus flavus [7]; NCIM 535, 72 h, read-out: DIZ): 13 mm; zone of inhibition at 500 µg/disc (Bacillus cereus [16]; NCIM 2155, 24 h, read-out: DIZ): 9 mm; zone of inhibition at 500 µg/disc (Bacillus subtilis [18]; NCIM 2063, 24 h, read-out: DIZ): 10 mm; zone of inhibition at 500 µg/disc (Escherichia coli [24]): 9 mm; MIC (Bacillus subtilis [25]): 7.8 µg/mL (≈ 30.1 µM); MIC (Klebsiella aerogenes [26]): 31.2 µg/mL (≈ 120 µM); MIC (Pseudomonas aeruginosa [27]): 7.8 µg/mL (≈ 30.1 µM); MIC (Escherichia coli [28]): 62.5 µg/mL (≈ 241 µM); MIC (Lipomyces lipofer [29]): 125 µg/mL (≈ 482 µM); MIC (Aspergillus flavus [30]): 125 µg/mL (≈ 482 µM); MIC (Aspergillus niger [31]): 125 µg/mL (≈ 482 µM); MIC (Bacillus cereus [32]): 62.5 µg/mL (≈ 241 µM)
2 | COc1ccc2nc3[nH]c(=S)[nH]c(=O)c3cc2c1 | 12 mm | 11 mm | inactive | inactive | 8 mm | inactive | inactive | 13 mm | 11 mm | 12 mm | inactive | inactive | inactive | 10 mm | 11 mm | 13 mm | inactive | 15 mm | 9 mm | 13 mm | diameter of the inhibition zone (DIZ) (Aspergillus flavus [7]): inactive; diameter of the inhibition zone (DIZ) (Bacillus cereus [16]): inactive; diameter of the inhibition zone (DIZ) (Bacillus subtilis [18]): inactive; zone of inhibition at 500 µg/disc (Escherichia coli [24]): 9 mm; MIC (Bacillus subtilis [25]): 62.5 µg/mL (≈ 241 µM); MIC (Klebsiella aerogenes [26]): 15.6 µg/mL (≈ 60.2 µM); MIC (Pseudomonas aeruginosa [27]): 3.9 µg/mL (≈ 15 µM); MIC (Escherichia coli [28]): 31.2 µg/mL (≈ 120 µM); MIC (Lipomyces lipofer [29]): 125 µg/mL (≈ 482 µM); MIC (Aspergillus niger [31]): 7.8 µg/mL (≈ 30.1 µM); MIC (Penicillium chrysogenum [33]): 125 µg/mL (≈ 482 µM); MIC (Bacillus cereus [32]): 125 µg/mL (≈ 482 µM)
